Results: patent US20220167618A1, “PESTICIDALLY ACTIVE AZOLE-AMIDE COMPOUNDS” (SYNGENTA CROP PROTECTION AG, priority 2019, published 2022)

Experiments:
[1] = tested on: Plutella xylostella (Diamond Back Moth); assay: Example B5: Plutella xylostella (diamond back moth), artificial diet, 24-well; format: in vivo; conditions: 192 h, application rate 200 ppm, eggs, 8 days after infestation, read-out: control in at least one of the two categories (mortality or growth inhibition)
Protocol: Example B5: Plutella xylostella (Diamond Back Moth)
24-well microtiter plates with artificial diet were treated with aqueous test solutions prepared from 10′000 ppm DMSO stock solutions by pipetting. After drying, Plutella eggs were pipetted through a plastic stencil onto a gel blotting paper and the plate was closed with it. The samples were assessed for mortality and growth inhibition in comparison to untreated samples 8 days after infestation.

[2] = tested on: Diabrotica balteata (Corn Root Worm); assay: Example B1: Diabrotica balteata (corn root worm), sprayed maize sprouts; format: in vivo; conditions: 96 h, application rate 200 ppm, L2 larvae, 4 days after infestation, read-out: control in at least one of the two categories (mortality or growth inhibition)
Protocol: Example B1: Diabrotica balteata (Corn Root Worm)
Maize sprouts placed onto an agar layer in 24-well microtiter plates were treated with aqueous test solutions prepared from 10′000 ppm DMSO stock solutions by spraying. After drying, the plates were infested with L2 larvae (6 to 10 per well). The samples were assessed for mortality and growth inhibition in comparison to untreated samples 4 days after infestation.

[3] = tested on: Chilo suppressalis (Striped Rice Stemborer); assay: Example B4: Chilo suppressalis (striped rice stemborer), artificial diet; format: in vivo; conditions: 144 h, application rate 200 ppm, L2 larvae, 6 days after infestation, read-out: control in at least one of the three categories (mortality, anti-feedant or growth inhibition)
Protocol: Example B4: Chilo suppressalis (Striped Rice Stemborer)
24-well microtiter plates with artificial diet were treated with aqueous test solutions prepared from 10′000 ppm DMSO stock solutions by pipetting. After drying, the plates were infested with L2 larvae (6-8 per well). The samples were assessed for mortality, anti-feeding effect, and growth inhibition in comparison to untreated samples 6 days after infestation. Control of Chilo suppressalis by a test sample is given when at least one of the categories mortality, anti-feedant effect, and growth inhibition is higher than the untreated sample.

[4] = tested on: Plutella xylostella (Diamondback Moth); assay: Example B13: Plutella xylostella (diamondback moth), artificial diet, 96-well; format: in vivo; conditions: 216 h, application rate 500 ppm, eggs/L1 larvae, 9 days after infestation
Protocol: Example B13: Plutella xylostella (Diamondback Moth)
96-well microtiter plates containing artificial diet were treated with aqueous test solutions, prepared from 10′000 ppm DMSO stock solutions, by a liquid handling robot. After drying, eggs (˜30 per well) were infested onto a netted lid which was suspended above the diet. The eggs hatch and L1 larvae move down to the diet. The samples were assessed for mortality 9 days after infestation.

[5] = tested on: Spodoptera littoralis (Egyptian Cotton Leaf Worm); assay: Example B9: Spodoptera littoralis (Egyptian cotton leaf worm), sprayed cotton leaf discs; format: in vivo; conditions: foliar, 72 h, application rate 200 ppm, L1 larvae, 3 days after infestation, read-out: control in at least one of the three categories (mortality, anto-feedant or growth inhibition)

| SMILES | percent control (mortality or growth inhibition) at 200 ppm [1] [%] | percent control (mortality or growth inhibition) at 200 ppm [2] [%] | percent control (mortality, anti-feedant or growth inhibition) at 200 ppm [3] [%] | mortality at 500 ppm [4] [%] | percent control (mortality, anti-feedant or growth inhibition) at 200 ppm [5] [%] | melting point [°C] |
| --- | --- | --- | --- | --- | --- | --- |
| CC(NC(=O)c1cc(C2CC2)cc(C(F)(F)F)c1)c1nc(Br)nn1-c1ncc(OCC(F)(F)F)cn1 (stereo not drawn) [Compound P5, N-[1-[5-bromo-2-[5-(2,2,2-trifluoroethoxy)pyrimidin-2-yl]-1,2,4-triazol-3-yl]ethyl]-3-cyclopropyl-5-(trifluoromethyl)benzamide] | ≥ 80 | ≥ 80 | ≥ 80 | ≥ 80 | ≥ 80 |  |
| CC(NC(=O)c1cc(C2CC2(F)F)cc(C(F)(F)F)c1)c1nc(Br)nn1-c1ccc(C#N)cn1 (stereo not drawn) [Compound P6, N-[1-[5-bromo-2-(5-cyano-2-pyridyl)-1,2,4-triazol-3-yl]ethyl]-3-(2,2-difluorocyclopropyl)-5-(trifluoromethyl)benzamide] | ≥ 80 | ≥ 80 | ≥ 80 | ≥ 80 | ≥ 80 |  |
| CC(NC(=O)c1cc(C2CC2(F)F)cc(C(F)(F)F)c1)c1nc(Br)nn1-c1ncc(OCC(F)F)cn1 (stereo not drawn) [Compound P8, N-[1-[5-bromo-2-[5-(2,2-difluoroethoxy)pyrimidin-2-yl]-1,2,4-triazol-3-yl]ethyl]-3-(2,2-difluorocyclopropyl)-5-(trifluoromethyl)benzamide] | ≥ 80 | ≥ 80 | ≥ 80 | ≥ 80 | ≥ 80 |  |
| CC(NC(=O)c1cc(C2CC2(F)F)cc(C(F)(F)F)c1)c1nc(Br)nn1-c1ncc(OC(F)F)cn1 (stereo not drawn) [Compound P12, N-[1-[5-bromo-2-[5-(difluoromethoxy)pyrimidin-2-yl]-1,2,4-triazol-3-yl]ethyl]-3-(2,2-difluorocyclopropyl)-5-(trifluoromethyl)benzamide] | ≥ 80 | ≥ 80 | ≥ 80 | ≥ 80 | ≥ 80 |  |
| CC(NC(=O)c1cc(C2CC2)cc(C(F)(F)F)c1)c1nc(Br)nn1-c1ncc(OCC(F)F)cn1 (stereo not drawn) [Compound P18, N-[1-[5-bromo-2-[5-(2,2-difluoroethoxy)pyrimidin-2-yl]-1,2,4-triazol-3-yl]ethyl]-3-cyclopropyl-5-(trifluoromethyl)benzamide] | ≥ 80 | ≥ 80 | ≥ 80 | ≥ 80 | ≥ 80 |  |
| CC(NC(=O)c1cc(C(F)(F)F)cc(C(F)(F)C2CC2)c1)c1nc(Br)nn1-c1ccc(C#N)cn1 (stereo not drawn) [Compound P21, N-[1-[5-bromo-2-(5-cyano-2-pyridyl)-1,2,4-triazol-3-yl]ethyl]-3-[cyclopropyl(difluoro)methyl]-5-(trifluoromethyl)benzamide] | ≥ 80 | ≥ 80 | ≥ 80 |  | ≥ 80 |  |
| CC(NC(=O)c1cc(C2CC2(F)F)cc(C(F)(F)F)c1)c1nc(Br)nn1-c1ccc(OCC(F)F)cn1 (stereo not drawn) [Compound P22, N-[1-[5-bromo-2-[5-(2,2-difluoroethoxy)-2-pyridyl]-1,2,4-triazol-3-yl]ethyl]-3-(2,2-difluorocyclopropyl)-5-(trifluoromethyl)benzamide] | ≥ 80 |  | ≥ 80 | ≥ 80 | ≥ 80 |  |
| CC(NC(=O)c1cc(C(F)(F)F)cc(S(=O)(=O)C(F)(F)F)c1)c1nc(Br)nn1-c1ncc(OCC(F)F)cn1 (stereo not drawn) [Compound P24, N-[1-[5-bromo-2-[5-(2,2-difluoroethoxy)pyrimidin-2-yl]-1,2,4-triazol-3-yl]ethyl]-3-(trifluoromethyl)-5-(trifluoromethylsulfonyl) benzamide] | ≥ 80 |  | ≥ 80 | ≥ 80 | ≥ 80 |  |
| CC(NC(=O)c1cc(C2CC2)cc(C(F)(F)F)c1)c1nc(Br)nn1-c1ccc(OC(F)F)cn1 (stereo not drawn) [Compound P25, N-[1-[5-bromo-2-[5-(difluoromethoxy)-2-pyridyl]-1,2,4-triazol-3-yl]ethyl]-3-cyclopropyl-5-(trifluoromethyl)benzamide] | ≥ 80 | ≥ 80 | ≥ 80 |  | ≥ 80 |  |
| CC(NC(=O)c1cc(C2CC2)cc(C(F)(F)F)c1)c1nc(Br)nn1-c1ccc(OCC(F)F)cn1 (stereo not drawn) [Compound P27, N-[1-[5-bromo-2-[5-(2,2-difluoroethoxy)-2-pyridyl]-1,2,4-triazol-3-yl]ethyl]-3-cyclopropyl-5-(trifluoromethyl)benzamide] | ≥ 80 |  | ≥ 80 | ≥ 80 |  |  |
| CC(NC(=O)c1cc(C(F)(F)F)nc(C2(C#N)CC2)c1)c1nc(Br)nn1-c1ccc(OC(F)F)cn1 (stereo not drawn) [Compound P30, N-[1-[5-bromo-2-[5-(difluoromethoxy)-2-pyridyl]-1,2,4-triazol-3-yl]ethyl]-2-(1-cyanocyclopropyl)-6-(trifluoromethyl)pyridine-4-carboxamide] |  |  |  |  |  | 152 to 154 |
| CC(NC(=O)c1cc(C(F)(F)F)cc(C(C)(C)C#N)c1)c1nc(Br)nn1-c1ncc(OCC(F)F)cn1 (stereo not drawn) [Compound P38, N-[1-[5-bromo-2-[5-(2,2-difluoroethoxy)pyrimidin-2-yl]-1,2,4-triazol-3-yl]ethyl]-3-(1-cyano-1-methyl-ethyl)-5-(trifluoromethyl)benzamide] | ≥ 80 | ≥ 80 | ≥ 80 |  | ≥ 80 |  |
| CC(NC(=O)c1cc(C(F)(F)F)cc(C(C)(C)C#N)c1)c1nc(Br)nn1-c1ncc(OCC(F)(F)F)cn1 (stereo not drawn) [Compound P39, N-[1-[5-bromo-2-[5-(2,2,2-trifluoroethoxy)pyrimidin-2-yl]-1,2,4-triazol-3-yl]ethyl]-3-(1-cyano-1-methyl-ethyl)-5-(trifluoromethyl)benzamide] | ≥ 80 | ≥ 80 | ≥ 80 |  | ≥ 80 |  |
| CC(NC(=O)c1cc(C(F)(F)F)cc(C(C)(C)C#N)c1)c1nc(Br)nn1-c1ccc(OCC(F)F)cn1 (stereo not drawn) [Compound P40, N-[1-[5-bromo-2-[5-(2,2-difluoroethoxy)-2-pyridyl]-1,2,4-triazol-3-yl]ethyl]-3-(1-cyano-1-methyl-ethyl)-5-(trifluoromethyl)benzamide] | ≥ 80 |  | ≥ 80 | ≥ 80 | ≥ 80 |  |
